# Data taken from patent publication US12622918B2, “Formulations and dosages for administering a compound that inhibits MCL1 protein” (Amgen Inc., priority 2019, dated 2026).
# Key:
# [1] = test system: HL-60; assay: Cell viability (CellTiterGlo), HL-60; format: cell-based; conditions: Homo sapiens; HL-60, AML; 24 hours; 10% FBS; read-out: AMS 176 IC50
# [2] = Pharmacokinetics in monkeys; conditions: male, monkey, in vivo, read-out: mean terminal elimination half-life (t1/2,z) (converted)
# Source text: (§1) The pharmacokinetics (PK) of the compound of Formula I after single intravenous (IV) or oral administration were characterized in male CD1 mice, female athymic nude mice, male Nu/Nu mice, male Sprague Dawley rats, male beagle dogs, and male cynomolgus monkeys. The clearance (CL) of the compound was low in mice, rats, dogs, and monkeys relative to their hepatic blood flow. Volume of distribution at steady state (Vss) in mice, rats, dogs, and monkeys was variable across the species.
# [3] = Pharmacokinetics in rats; conditions: male, Sprague Dawley, rat, in vivo, read-out: mean terminal elimination half-life (t1/2,z) (converted)
# Source text: as §1
# [4] = test system: KMS-28-PE; assay: Cell viability (CellTiterGlo), KMS-28-PE; format: cell-based; conditions: Multiple myeloma, 24 hours, 10% FBS, read-out: AMS 176 IC50
# [5] = test system: OPM2-Luc tumor xenografts; assay: OPM2-Luc xenograft efficacy, once daily dosing; format: in vivo, mice; conditions: for animals tumor free: day 24
# Procedure: OPM2-Luc cells (5×10^6) were implanted subcutaneously into female athymic nude mice. […] Three of 10 animals in the 30 mg/kg group and 10 of 10 animals in the 60 mg/kg group were tumor free on day 24.
# [6] = Pharmacokinetics in dogs; format: in vivo
# Source text: as §1
# [7] = test system: Raji; assay: Cell viability (CellTiterGlo), Raji; format: cell-based; conditions: Homo sapiens, NHL, 24 hours, 10% FBS, read-out: AMS 176 IC50
# [8] = test system: OPM2 multiple myeloma tumor cell line; assay: Viability of OPM2 cells; format: cell-based; conditions: Homo sapiens
# [9] = Pharmacokinetics in mice; format: in vivo
# Source text: as §1
# [10] = test system: KMM1; assay: Cell viability (CellTiterGlo), KMM1; format: cell-based; conditions: KMM-1; KMM1, Multiple myeloma; 24 hours; 10% FBS; read-out: AMS 176 IC50
# [11] = test system: U937; assay: Cell viability (CellTiterGlo), U937; format: cell-based; conditions: Homo sapiens, U-937; U937, NHL; 24 hours; 10% FBS; read-out: AMS 176 IC50
# [12] = Distribution into blood cells; format: in vitro ADME
# [13] = test system: KMS-12-BM; assay: Cell viability (CellTiterGlo), KMS-12-BM; format: cell-based; conditions: Homo sapiens, Multiple myeloma, 24 hours, 10% FBS, read-out: AMS 176 IC50
# [14] = test system: TF-1; assay: Cell viability (CellTiterGlo), TF-1; format: cell-based; conditions: Homo sapiens; TF-1, AML; 24 hours; 10% FBS; read-out: AMS 176 IC50
# [15] = test system: MOLM-13; assay: Cell viability (CellTiterGlo), MOLM-13; format: cell-based; conditions: Homo sapiens; MOLM-13, AML; 24 hours; 10% FBS; read-out: AMS 176 IC50
# [16] = test system: SU-OHL-6; assay: Cell viability (CellTiterGlo), SU-OHL-6; format: cell-based; conditions: SU-OHL-6, NHL; 24 hours; 10% FBS; read-out: AMS 176 IC50
# [17] = test system: MM1R; assay: Cell viability (CellTiterGlo), MM1R; format: cell-based; conditions: MM.1R, Multiple myeloma, 24 hours, 10% FBS, read-out: AMS 176 IC50
# [18] = test system: KMS34; assay: Cell viability (CellTiterGlo), KMS34; format: cell-based; conditions: KMS-34; KMS34, Multiple myeloma; 24 hours; 10% FBS; read-out: AMS 176 IC50
# [19] = test system: Adult patients with relapsed or refractory AML; assay: Dose-escalation study in relapsed or refractory AML, data cutoff May 17, 2019; format: in vivo
# Procedure: Escalating doses started at 60 mg/m^2. For dose levels ≥180 mg/m^2, a lead-in dose of 120 mg/m^2 was implemented during week 1. Primary objectives included the evaluation of safety, tolerability, and pharmacokinetics. The secondary objective was a preliminary evaluation of efficacy, assessed using ELN criteria. Exploratory endpoints included pharmacodynamic evaluation of MCL-1 inhibition in circulating AML blasts.
# [20] = Plasma protein binding in vitro; format: in vitro ADME
# [21] = test system: rat; assay: 28-day GLP rat IV infusion toxicology study; format: in vivo
# Source text: The doses selected for the 28-day IV rat and dog toxicology studies were intended to characterize the toxicity of the compound of Formula I and provide data to support a starting dose in the first-in-human (FIH) study. An IV route of administration and a dosing schedule of 2 days on/5 days off was used to support the anticipated clinical route and dosing schedule.
# [22] = TEAEs occurring in ≥2 patients, N = 11
smiles,measurement,setting,value
CO[C@H]1/C=C/C[C@H](C)[C@@H](C)S(=O)(=O)NC(=O)c2ccc3c(c2)N(C[C@@H]2CC[C@H]21)C[C@@]1(CCCc2cc(Cl)ccc21)CO3 [AMG 176],IC50,[1],0.11 µM
same,half-life,[2],1.66 h
same,half-life,[3],19.5 h
same,IC50,[4],12 µM
same,TGI,"[5]; 20 mg/kg once daily oral gavage, p<0.001",63%
same,effect on established OPM2-Luc tumors,"[5]; 30 mg/kg and 60 mg/kg orally once daily, summary statement",tumor regression
same,tumor regression,"[5]; 30 mg/kg once daily oral gavage, p<0.001",50%
same,animals tumor free,[5]; 30 mg/kg once daily,Three of 10
same,tumor regression,"[5]; 60 mg/kg once daily oral gavage, p<0.0001",100%
same,animals tumor free,[5]; 60 mg/kg once daily,10 of 10
same,changes in body weight and body score assessment,[5]; 10-60 mg/kg once daily oral gavage,no evidence of AMG 176-related changes
same,"mean terminal elimination half-life (t1/2,z)",[6],10.8 h
same,IC50,[7],3.55 µM
same,IC50,"[8]; OPM-2, growth medium containing 5% human serum",0.703 µM
same,IC50,"[8]; OPM-2, growth medium containing 10% fetal bovine serum",0.236 µM
same,IC50,"[8]; OPM-2, serum-free growth medium",0.0155 µM
same,"mean terminal elimination half-life (t1/2,z)",[9],13.8 h
same,IC50,[10],0.407 µM
same,IC50,[11],0.474 µM
same,distribution into blood cells,[12],did not preferentially distribute into blood cells
same,IC50,[13],0.015 µM
same,IC50,[14],2.09 µM
same,IC50,[15],0.241 µM
same,IC50,[16],0.165 µM
same,IC50,[17],1.14 µM
same,IC50,[18],6.05 µM
same,plasma exposures versus dose,[19]; 60-180 mg/m^2,increased in a dose-related manner
same,"Treatment-related AEs, patients","[19]; AML, 11 patients",46%
same,fatal adverse events,"[19]; AML, 11 patients",No fatal adverse events were observed
same,"grade ≥3 TEAEs, patients","[19]; AML, 11 patients",73%
same,grade ≥3 anemia,"[19]; AML, 11 patients",18%
same,"grade ≥3 treatment-related AEs, patients","[19]; AML, 11 patients",18%
same,"nausea, any grade","[19]; AML, 11 patients",36%
same,"peripheral edema, any grade","[19]; AML, 11 patients",36%
same,"TEAEs of any grade, patients","[19]; AML, 11 patients, 60-180 mg/m^2 IV",91%
same,"Anemia, Grade ≥3","[19]; Grade ≥3 TEAEs occurring in ≥2 patients, N = 11",2 (18.2) n (%)
same,time of maximum plasma concentrations,[19]; IV infusion over a minimum of 2 hours,close to the end of intravenous infusion
same,All TEAEs,[19]; Patients (N = 11),10 (90.9) n (%)
same,TEAEs Fatal,[19]; Patients (N = 11),0 n (%)
same,TEAEs Grade ≥3,[19]; Patients (N = 11),8 (72.7) n (%)
same,TEAEs Serious,[19]; Patients (N = 11),8 (72.7) n (%)
same,Anemia,[19]; [22],2 (18.2) n (%)
same,Hypokalemia,[19]; [22],2 (18.2) n (%)
same,Hypomagnesemia,[19]; [22],2 (18.2) n (%)
same,Increased blood bilirubin level,[19]; [22],2 (18.2) n (%)
same,Nausea,[19]; [22],4 (36.4) n (%)
same,Peripheral edema,[19]; [22],4 (36.4) n (%)
same,Vomiting,[19]; [22],2 (18.2) n (%)
same,maximum tolerated dose,[19]; at the data cutoff date,not yet reached
same,"safety, tolerability, and pharmacokinetic profile","[19]; monotherapy, dose levels evaluated",acceptable
same,pharmacodynamic impact in peripheral blood AML blasts,"[19]; patient achieving CRi, 3 hours postinfusion",release of the proapoptotic protein Bax and activation of effector caspase 3
same,plasma protein binding,[20],highly plasma-protein bound
same,finding related to morbidity and mortality,[21],mucosal epithelial degeneration in the small and large intestines
same,dose with mortality,"[21]; IV infusion, 28-day",120 mg/kg
same,severely toxic dose in 10% of animals (STD10),"[21]; IV infusion, 2 days on/5 days off, 28-day",60 mg/kg
